Results reported in patent US20070184549A1, “Method of inducing fenestrae” (priority 2004, published 2007).
pKd: −log10 of the molar value.

Experiments:
bEND5 cells = assay: Fenestrae induction in bEND5 cells, quantified by stereology on SEM or wholemount TEM images; conditions: for induction of fenestrae compared to the untreated control: cytochalasin B (10 nM) or Latrunculin A (2.5 nM) alone; for induction of fenestrae compared to the untreated control / maximum number of fenestrae: SEM; for maximum number of fenestrae: cytochalasin B at 2 hours, latrunculin A after 3 hours; for time of treatment at maximum number of fenestrae: single agent, SEM time-course; for fenestrae formation: 2.5 μM Latrunculin A, 3 hours, wholemount TEM
Excerpt: Images were printed, and sieve plates were marked (solid line). A grid (20 mm×20 mm) was overlaid over each image and the number of grid points falling within the areas delineated or on any cellular structure were counted. Fenestrae abundance was estimated based on the following calculation: Plasma membrane coverage (or fraction of the plasma membrane occupied by sieve plates)=grid points falling on sieve plates/grid points falling on any cell area. To express abundance in terms of the number of fenestrae per area of plasma membrane, the density of fenestrae within sieve plates was calculated and multiplied by the frequency of sieve plates as follows: number of fenestrae per square μm=density of fenestrae×plasma membrane coverage.
A quantitative assessment of fenestrae numbers was achieved by applying Stereology to SEM or wholemount TEM images (FIG. 3). Quantitative assessment comprised overlaying a lattice on top of an image and counting points falling on fenestrated and on non-fenestrated areas of the plasma membrane. Amounts of fenestrae were routinely expressed as fractions of plasma membrane area that was fenestrated (point counts falling on fenestrae divided by point counts falling on any plasma membrane area). To compare these numbers with measurements in previous in vivo or in vitro studies, the density of individual fenestrae within sieve plates was estimated, which when multiplied by the fraction of plasma membrane coverage equaled the number of fenestrae per μm^2 of plasma membrane.
Coverslips and dishes were coated with 1% gelatin (Sigma) solution in PBS for 30 minutes at room temperature. Endothelial cells were seeded overnight at a density equivalent to 1.5×10^6 cells per 100 mm dish. Cultures were induced with Cytochalasin B (Sigma) at 10 μM for 2 hours, with Latrunculin A (Molecular Probes) at 2.5 μM for 3 hours, or with a combination of recombinant mouse 75 ng/ml VEGF (R&D systems) for 6-72 hours and 10 μM Cytochalasin B for 2 hours. Cells were processed for biochemistry or morphology immediately after the end of the induction.

actin filaments = conditions: barbed, fast growing end of actin filaments; cited from earlier work
Py4.1 cells = assay: Fenestrae induction in Py4.1 cells, wholemount TEM; type: cell-based, mouse; conditions: for fenestrae formation: 2.5 μM Latrunculin A, 3 hours, wholemount TEM
Description: (§1) FIG. 9 is a graph regarding fenestrae induction in different endothelial cell types. The potential of different endothelial cell lines to form fenestrae under the optimal parameters of induction was assessed using wholemount TEM. bEND5, Py4.1, SVEC, and HUVEC cells were treated for 3 hours with vehicle (V) or 2.5 μM Latrunculin A (Lat), and the number of fenestrae was estimated as a fraction of the plasma membrane area occupied by sieve plates. Data points represent the average of two experiments, with 36 images captured per sample in each experiment. Error bars represent standard deviation between the two experiments.
A panel of endothelial cell subtypes was assessed for their fenestrae-forming potentials. Three mouse endothelial lines (bEND5, Py4.1, SVEC) and one human primary endothelial line (HUVEC) were cultured on gelatin-coated grids, treated with latrunculin A for 3 hours, and examined by wholemount TEM (FIG. 8). bEND5 and Py4.1 cells are brain endothelomas and ear/tail endotheliomas respectively, both originating from hemangiomas of Polyoma virus—infected mice. SVECs are lymph node endothelial cells infected with SV40 virus. HUVECs were chosen because of their widespread use and primary cell nature. […] The response of bEND5 and Py4.1 cells differed both in magnitude and in relation to the respective untreated controls. bEND5 cells harbored greater numbers of fenestrae overall, but contained some background fenestrae in the un-induced state.

[1] = tested on: actin microfilaments of bEND5 cells; assay: Actin microfilament staining with Alexa546-conjugated phalloidin, time-course in bEND5 cells; type: cell-based, mouse; conditions: for earliest dramatic changes in the organization of actin, time of treatment / time until which cortical actin persisted / was dismantled / time within which stress fibers were reduced: 10 μM Cytochalasin B or 2.5 μM Latrunculin A
Description: Stress fibers were reduced within the first 20 minutes, whereas cortical actin persisted until about 60 minutes of treatment. At 120 minutes, individual actin bundles were spread around the cytoplasm. (Bar=8 μm)
FIG. 11 show images of bEND5 cells that were treated with 2.5 μM Latrunculin A for different periods of time, and actin microfilaments were stained with Alexa546-conjugated phalloidin. Stress fibers were reduced within the first 20 minutes, while complete disruption occurs at 60-120 minutes. Individual actin foci, small filaments, and actin-rich filopodia were present after 180 minutes of treatment. (Bar=8 μm)
(§2) Microfilaments were disrupted in all cell types upon treatment. (Bar=8 μm)
In parallel to the SEM analysis, bEND5 cells subjected to cytochalasin B and latrunculin A time-courses were stained for the presence of actin microfilaments using phalloidin (FIGS. 10 and 11). Untreated cells contained an extensive network of stress fibers spanning their cytoplasm. Dramatic changes in the organization of actin were however observed as early as after 10 minutes of treatment with either agent. […] At 120 minutes, the disassembled actin was concentrated in aggregates throughout the cytoplasm, while large areas remained actin-deficient. In cells treated with latrunculin A (FIG. 11) the disruption of stress fibers was faster, and the cortical cytoskeleton was dismantled within the first 20 minutes. Overall cells had more and larger actin-depleted areas, and the remainder of actin appeared irregularly arranged in short filaments around the cytoplasm or in structures resembling filopodia.

[2] = tested on: actin cytoskeleton of Py4.1 cells; assay: Actin cytoskeleton staining with phalloidin in Py4.1 cells; type: cell-based, mouse; conditions: 2.5 μM Latrunculin A, 3 hours
Excerpt: as §2
(§3) The actin cytoskeleton of all four cell types was stained with phalloidin to study the differential induction of endothelial cell subtypes by latrunculin A (FIG. 12). […] Observation of bEND5 and Py4.1 cells highlighted a difference in their actin cytoskeleton in the steady state (FIGS. 12A and 12C). Py4.1 cells had greater amounts of cortical actin. This could account for their decreased susceptibility to fenestrae formation compared to bEND5 cells, a discrepancy particularly apparent during induction with cytochalasin B.

[3] = tested on: actin cytoskeleton of SVEC cells; assay: Actin cytoskeleton staining with phalloidin in SVEC cells; type: cell-based, mouse; conditions: 2.5 μM Latrunculin A, 3 hours
Excerpt: as §2, §3

actin monomers = conditions: 1:1 complexes with actin monomers; cited from earlier work
HUVEC cells = assay: Fenestrae induction in HUVEC cells, wholemount TEM; type: cell-based, human; conditions: 2.5 μM Latrunculin A, 3 hours
Description: as §1
(§4) A panel of endothelial cell subtypes was assessed for their fenestrae-forming potentials. Three mouse endothelial lines (bEND5, Py4.1, SVEC) and one human primary endothelial line (HUVEC) were cultured on gelatin-coated grids, treated with latrunculin A for 3 hours, and examined by wholemount TEM (FIG. 8). bEND5 and Py4.1 cells are brain endothelomas and ear/tail endotheliomas respectively, both originating from hemangiomas of Polyoma virus—infected mice. SVECs are lymph node endothelial cells infected with SV40 virus. HUVECs were chosen because of their widespread use and primary cell nature. […]

SVEC cells = assay: Fenestrae induction in SVEC cells, wholemount TEM; type: cell-based, mouse; conditions: 2.5 μM Latrunculin A, 3 hours
Description: as §1, §4

[4] = tested on: actin cytoskeleton of HUVEC cells; assay: Actin cytoskeleton staining with phalloidin in HUVEC cells; type: cell-based, human; conditions: 2.5 μM Latrunculin A, 3 hours
Excerpt: as §2, §3

[5] = tested on: primary liver endothelial cells; conditions: cited from earlier work
[6] = tested on: normally non-fenestrated anatomical sites; conditions: topical application or intradermal injection; cited from earlier work

C=C1[C@@H](C)[C@H]2[C@H](Cc3ccccc3)NC(=O)[C@]23OC(=O)/C=C/[C@H](O)CCC[C@@H](C)C/C=C/[C@H]3[C@@H]1O [cytochalasin B]
induction of fenestrae compared to the untreated control (bEND5 cells): ~100 fold
maximum number of fenestrae (bEND5 cells): 3.5 fenestrae per μm^2
time of treatment at maximum number of fenestrae (bEND5 cells): 2 h
change in the number of fenestrae at 3 hours of treatment (bEND5 cells; versus the maximum at 2 hours): slight decrease
pKd (actin filaments): 7.00 to 8.00
response of Py4.1 cells to cytochalasin B (fenestrae formation) (Py4.1 cells): responsive
earliest dramatic changes in the organization of actin, time of treatment [1]: 10 min
time until which cortical actin persisted / was dismantled [1]: about 60 minutes
time within which stress fibers were reduced [1]: ≤ 20 min

C/C1=C/C(=O)O[C@@H]2C[C@@H](CC[C@H](C)/C=C\C=C\CC1)O[C@@](O)([C@@H]1CSC(=O)N1)C2 [latrunculin A]
state of the actin cytoskeleton after treatment [2]: completely disrupted
state of the actin cytoskeleton after treatment [3]: completely disrupted
pKd (actin monomers): ~7.00
fenestrae formation (HUVEC cells): only very few
fenestrae formation (HUVEC cells; listed as Latrunculin A): rare fenestrae
fenestrae formation (bEND5 cells): susceptible to fenestrae formation
fenestrae formation (bEND5 cells; listed as Latrunculin A): Abundant fenestrae
induction of fenestrae compared to the untreated control (bEND5 cells): ~100 fold
maximum number of fenestrae (bEND5 cells): up to 5.3 fenestrae per μm^2
maximum number of fenestrae (bEND5 cells; listed as Latrunculin A): 5.3 fenestrae per μm^2
potency in inducing fenestrae, comparison of the two agents (bEND5 cells; even when used at lower concentrations): more potent in inducing fenestrae than cytochalasin B
time of treatment at maximum number of fenestrae (bEND5 cells): 3 h
viability of the cells (bEND5 cells; treatments extended over 3 hours): reduced considerably
fenestrae formation (SVEC cells): no indication of fenestrae
fenestrae formation (SVEC cells; listed as Latrunculin A): No fenestrae
fenestrae formation (Py4.1 cells): susceptible to fenestrae formation
fenestrae formation (Py4.1 cells; listed as Latrunculin A): Abundant fenestrae
state of the actin cytoskeleton after treatment [4]: completely disrupted
time of complete disruption of actin microfilaments ([1]; 2.5 μM Latrunculin A): 60 to 120 min
state of the actin cytoskeleton after treatment ([1]; 2.5 μM Latrunculin A, 3 hours): completely disrupted
earliest dramatic changes in the organization of actin, time of treatment [1]: 10 min
time until which cortical actin persisted / was dismantled [1]: ≤ 20 min
time within which stress fibers were reduced [1]: ≤ 20 min

CO[C@H]1C[C@H](CC[C@H](C)[C@H](O)[C@H](C)[C@H]2OC(=O)/C=C/C(C)=C/C[C@H](O)C[C@@H]3C=CC[C@@H](C[C@H](OC)[C@@H](C)[C@@H](O)C[C@@H](O)[C@H](C)[C@@H]([C@@H](C)[C@@H](O)[C@@H](C)CC[C@H]4C[C@H](OC)C[C@H](C)O4)OC(=O)/C=C/C(C)=C/C[C@H](O)C[C@@H]4C=CC[C@@H](C[C@H](OC)[C@@H](C)[C@@H](O)C[C@@H](O)[C@@H]2C)O4)O3)O[C@@H](C)C1 [swinholide A]
induction of fenestrae over untreated control [5]: less than 3 fold
fenestrae levels ([5]; untreated control contained over 3 fenestrae per μm^2): up to 9.1 per μm^2

VEGF
time within which fenestrations are induced [6]: ≤ 10 min
fenestrae induction, cells treated only with VEGF (bEND5 cells; Cytochalasin B omitted from the induction cocktail): minimal induction over background
